In patent publication US8273753B2, “Polymorph B of N-{2-Fluoro-5-[3-(thiophene-2-carbonyl)-pyrazolo[1,5-a]pyrimidin-7-yl]-phenyl}-N-methyl-acetamide” (Ferrer International, S.A., priority 2006, dated 2012):

Columns and labels:
Type in all cases: in vivo
[1] = tested on: mice; test: Spontaneous motor activity in mice after oral administration (induction of sedation); conditions: for ED50: Mus musculus, oral administration, spontaneous motor activity, read-out: ED50 sedation (dose that induces sedation in 50% of animals)
Protocol: The effect of oral administration of both indiplon and the compound of the present invention on the spontaneous motor activity in mice is an accepted model to evaluate the induction of the sedation, an experiment considered predictive of hypnotic efficacy. In this experiment, the ED50—the dose that induces sedation in 50% of animals—was calculated.

[2] = tested on: mice; test: EEG recording of the sleep-wake cycle in mice; conditions: FIG. 7; for Effect on the three sleep parameters (time of wake, slow wave sleep, paradoxical sleep): mice, EEG, doses ED50, 3-fold and 6-fold
Protocol: This increased sedative/hypnotic efficacy was confirmed by electroencephalographyc (EEG) experiments, when the recording of the sleep-wake cycle in mice was evaluated. Based on the previous experiment, doses were chosen and both compounds were tested at equipotent pharmacological doses (the ED50, 3-fold and 6-fold for both cases).
In FIG. 7, results are expressed as the mean time (min±SEM) spent in each behavioral state during a recording period of 6 h in the same animals (n=9).

[3] = tested on: mice; test: Two-way active avoidance paradigm in mice (amnesia liability); conditions: oral administration; for MED amnesia (minimal effective dose that induces statistically significant impairment of memory): two-way active avoidance
Protocol: Finally, a third experiment to evaluate adverse effects was performed. The model was the two-way active avoidance paradigm, which represents a behavioural test useful for evaluating learning and memory processes in mice. In this case, the amnesia liability index was obtained. Since it was reported that benzodiazepine-like drugs induce amnesia, this index allows to determine the margin between the preclinical effective doses that induce sedation compared to the minimal effective dose that induce statistically significant impairment of memory in mice (MED amnesia/ED50 sedation). Therefore, the amnesic liability index was calculated for both compounds. The results obtained are included in Table 1

[4] = mice n=9, 6 h recording period, largest dose

Row | SMILES | ED50 [1] | Slow wave sleep (SWS) mean time [2, 4] | Effect on the three sleep parameters (time of wake, slow wave sleep, paradoxical sleep) [2] | Amnesic liability Index (MED amnesia/ED50 sedation) [3] | MED amnesia (minimal effective dose that induces statistically significant impairment of memory) [3] | Sedative potency relative to indiplon (more potent) ([1]; oral, ED50 0.13 vs 0.2 mg/Kg) | Paradoxical sleep (PS) time, change [2, 4] | Waking (W) time, change [2, 4] | Greater margin between sedation induction and amnesia than indiplon [3]
1 | CC(=O)N(C)c1cccc(-c2ccnc3c(C(=O)c4cccs4)cnn23)c1 [Indiplon, N-{3-[3-(thiophene-2-carbonyl)-pyrazolo[1,5-a]pyrimidin-7-yl]-phenyl}-N-methyl-acetamide, reference compound] | 0.2 mg/kg | less than 140 min | effective only in one parameter (slow wave sleep) | 50 fold margin | 10 mg/kg | – | – | – | –
2 | CC(=O)N(C)c1cc(-c2ccnc3c(C(=O)c4cccs4)cnn23)ccc1F [Compound (I), N-{2-Fluoro-5-[3-(thiophene-2-carbonyl)-pyrazolo[1,5-a]pyrimidin-7-yl]-phenyl}-N-methyl-acetamide] | 0.13 mg/kg | up to 140 min | statistically significant improvement on all three of the parameters evaluated | 75 fold margin | 10 mg/kg | 35% | increase | decrease | 25 fold
